This note sets out measurements from ChEMBL document CHEMBL3039007, “Structure-based identification of OATP1B1/3 inhibitors” (Mol Pharmacol, 2013).

The residual activity is the signal under treatment as a percentage of the control signal.

Data set [1] concerns the target T1, Solute carrier organic anion transporter family member 1B3 (Homo sapiens, UniProt Q9NPD5).
T1 sequence (Q9NPD5 whole entry): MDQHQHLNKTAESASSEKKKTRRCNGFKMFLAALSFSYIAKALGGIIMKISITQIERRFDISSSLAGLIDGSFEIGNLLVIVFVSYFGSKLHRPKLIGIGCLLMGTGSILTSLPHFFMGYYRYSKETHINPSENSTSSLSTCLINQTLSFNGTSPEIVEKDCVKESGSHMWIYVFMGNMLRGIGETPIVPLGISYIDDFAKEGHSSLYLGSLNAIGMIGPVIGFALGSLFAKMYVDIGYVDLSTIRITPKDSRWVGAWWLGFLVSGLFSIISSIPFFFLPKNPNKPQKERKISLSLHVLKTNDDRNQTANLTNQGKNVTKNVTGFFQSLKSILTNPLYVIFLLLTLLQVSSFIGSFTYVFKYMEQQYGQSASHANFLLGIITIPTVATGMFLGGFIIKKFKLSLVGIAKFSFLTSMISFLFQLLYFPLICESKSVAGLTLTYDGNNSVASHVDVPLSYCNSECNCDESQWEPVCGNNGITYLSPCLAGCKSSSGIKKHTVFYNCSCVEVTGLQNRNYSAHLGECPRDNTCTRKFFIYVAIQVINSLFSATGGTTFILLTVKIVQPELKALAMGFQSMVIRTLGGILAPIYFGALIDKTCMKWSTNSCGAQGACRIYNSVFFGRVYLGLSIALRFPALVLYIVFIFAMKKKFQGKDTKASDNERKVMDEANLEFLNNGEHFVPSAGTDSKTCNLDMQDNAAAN
The following applies: chinese hamster, cho, 10 µM.

Data set [2] addresses T2, Solute carrier organic anion transporter family member 1B1 (Homo sapiens, UniProt Q9Y6L6).
T2 sequence (Q9Y6L6 whole entry): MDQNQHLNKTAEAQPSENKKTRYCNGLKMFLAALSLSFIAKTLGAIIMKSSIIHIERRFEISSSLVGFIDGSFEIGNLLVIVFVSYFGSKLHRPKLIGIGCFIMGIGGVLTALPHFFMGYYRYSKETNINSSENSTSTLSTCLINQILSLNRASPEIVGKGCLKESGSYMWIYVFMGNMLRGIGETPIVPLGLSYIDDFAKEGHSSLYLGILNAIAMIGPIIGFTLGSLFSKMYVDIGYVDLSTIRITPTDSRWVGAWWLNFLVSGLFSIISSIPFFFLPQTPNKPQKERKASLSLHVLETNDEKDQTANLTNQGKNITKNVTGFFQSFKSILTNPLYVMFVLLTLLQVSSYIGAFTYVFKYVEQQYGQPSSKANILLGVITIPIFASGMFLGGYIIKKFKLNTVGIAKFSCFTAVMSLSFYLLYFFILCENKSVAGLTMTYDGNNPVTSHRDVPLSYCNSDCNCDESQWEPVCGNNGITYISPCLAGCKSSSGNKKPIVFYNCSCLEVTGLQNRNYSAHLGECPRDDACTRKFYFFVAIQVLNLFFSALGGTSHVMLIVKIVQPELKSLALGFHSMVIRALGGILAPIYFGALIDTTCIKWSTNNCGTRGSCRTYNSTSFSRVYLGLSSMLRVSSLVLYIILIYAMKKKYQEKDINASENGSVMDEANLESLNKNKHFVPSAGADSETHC
Particulars: chinese hamster, cho, 10 µM.

Consider `C[C@@H]([C@H]1OC(C)(C)[C@@H](O)[C@H]1O)[C@@H]1CC[C@]2(C)C3=CC[C@H]4C(C)(C)C(=O)CC[C@]4(C)[C@H]3CC[C@@]12C`, for which the residual activity in data set [1] worked out at 98.76%; in data set [2], 77.68%.
Consider `O=C(O)c1cc(O)c(O)c(O)c1` [GALLIC ACID], for which the residual activity in data set [1] is on record as 91.35%; in data set [2], 67.94%.
On to `CN(C)c1ccc(C(=C2C=CC(=[N+](C)C)C=C2)c2ccc(N(C)C)cc2)cc1.[Cl-]` [GENTIAN VIOLET], for which the residual activity in data set [1] is 92.5%; in data set [2], 109.6%.
For `CC(C)=CCc1c(O)cc2occ(-c3ccc4c(c3)OCO4)c(=O)c2c1O` [DERRUBONE] the same measures were 106.9% and 115.1%.
For `C[C@H]1C[C@H]2[C@@H]3CCC4=CC(=O)C=C[C@]4(C)[C@@]3(F)[C@@H](O)C[C@]2(C)[C@@]1(O)C(=O)CO` [BETAMETHASONE] the same measures were 102.7% and 76.17%.
For `Cl.O=C(O)CCC1NCC2CC1CN1CCCCC21` (configuration not stated) [LUPANYL ACID HYDROCHLORIDE] the same measures were 103.3% and 104.4%.
`Cc1ccccc1OCC(O)CO` (configuration not stated) [MEPHENESIN]: the residual activity in data set [1] is given as 107.5%; in data set [2], 101%.
For `Cc1onc(-c2ccccc2)c1-c1ccc(S(N)(=O)=O)cc1` [VALDECOXIB] the same measures were 94.41% and 120.4%.
In the same order, the values of `CC(C)NCC(O)COc1ccc(CC(N)=O)cc1` (configuration not stated) [ATENOLOL] are 93.81% and 78.26%.
As for `CNC(=O)Oc1ccc2c(c1)[C@]1(C)CCN(C)[C@@H]1N2C.O=C(O)c1ccccc1O` [PHYSOSTIGMINE SALICYLATE], the residual activity in data set [1] worked out at 110.8%; in data set [2], 116%.
For `Cl.NCC(=O)c1ccccc1` [PHENACYLAMINE HYDROCHLORIDE] the same measures were 95.9% and 77.38%.
In the same order, the values of `C=C1[C@@H]([C@@]2(C)C=CC(=O)C(C)(C)[C@@H]2CC(=O)OC)CC[C@@]2(C)[C@H](c3ccoc3)OC(=O)[C@H]3O[C@]132` [ANDIROBIN] are 98.71% and 103.8%.
In the same order, the values of `Cc1c(C(=O)O)c(O)cc2c1C(=O)c1c(O)c([C@@H]3O[C@H](CO)[C@@H](O)[C@H](O)[C@H]3O)c(O)c(O)c1C2=O` [CARMINIC ACID] are 121.9% and 21.61%.
Take `C[C@H](CCC(=O)O)[C@H]1CC[C@H]2[C@@H]3[C@H](O)C[C@@H]4C[C@H](O)CC[C@]4(C)[C@H]3C[C@H](O)[C@]12C` [CHOLIC ACID]: the residual activity in data set [1] is listed as 75.03%; in data set [2], 99.52%.
In the same order, the values of `CC(=O)OCC(=O)[C@@]1(O)[C@H](C)C[C@H]2[C@@H]3CCC4=CC(=O)C=C[C@]4(C)[C@@]3(F)[C@@H](O)C[C@@]21C` [DEXAMETHASONE ACETATE] are 88.69% and 106%.
As to `CCN(CC)CCNc1ccc(CO)c2sc3ccccc3c(=O)c12` [HYCANTHONE], the residual activity in data set [1] was found to be 100.5%; in data set [2], 79.76%.
For `COc1cc(OC)c2ccc(=O)oc2c1` [CITROPTEN] the same measures were 105.5% and 81.95%.
Consider `Cl.NCCCCC(=O)O` [5-AMINOPENTANOIC ACID HYDROCHLORIDE], for which the figures for the residual activity in data set [1] and in data set [2] were 62.53% and 59.53%, respectively.
In the same order, the values of `CCCN(CCC)S(=O)(=O)c1ccc(C(=O)O)cc1` [PROBENECID] are 89.44% and 81.99%.
For `O=C(Oc1cc(O)cc2c1C[C@@H](OC(=O)c1cc(O)c(O)c(O)c1)[C@@H](c1cc(O)c(O)c(O)c1)O2)c1cc(O)c(O)c(O)c1` [EPIGALLOCATECHIN 3,5-DIGALLATE] the same measures were 82.14% and 55.31%.
For `CC[C@H](/C=C/[C@@H](C)[C@H]1CC[C@H]2[C@@H]3CC=C4C[C@@H](O)CC[C@]4(C)[C@H]3CC[C@]12C)C(C)C` [STIGMASTEROL] the same measures were 103.2% and 110.2%.
As for `Nc1ccc(S(=O)(=O)c2ccc(N)cc2)cc1` [DAPSONE], the residual activity in data set [1] is given as 84.17%; in data set [2] it was 78.21%.
Turning to `COP(=S)(OC)SCn1nnc2ccccc2c1=O` [GUTHION], the residual activity in data set [1] amounted to 101.8%; in data set [2], 109.1%.
For `CCCSc1ccc2nc(NC(=O)OC)[nH]c2c1` [ALBENDAZOLE] the same measures were 95.9% and 102.7%.
As to `COc1c(Cl)c(C)c2c(c1Cl)OC(=O)c1c(C)c(Cl)c(OC)c(Cl)c1O2` [DIPLOICIN METHYL ETHER], the residual activity was determined as 103.5% in data set [1] and 97.17% in data set [2].
In the same order, the values of `CCN(CC)CCOC(=O)C1(C2CCCCC2)CCCCC1.Cl` [DICYCLOMINE HYDROCHLORIDE] are 105.3% and 106.9%.
For `O=c1cc(-c2ccc(O)cc2)oc2cc(O[C@@H]3O[C@H](CO)[C@@H](O)[C@H](O)[C@H]3O)cc(O)c12` [APIGETRIN] the same measures were 134.6% and 204.4%.
For `CCCNC(C)C(=O)Nc1ccccc1C.Cl` (configuration not stated) [PRILOCAINE HYDROCHLORIDE] the same measures were 74.6% and 87.24%.
`c1ccc2[nH]c(-c3cscn3)nc2c1` [THIABENDAZOLE]: the residual activity in data set [1] turned out to be 94.36%; in data set [2] it was 76.75%.
In the same order, the values of `C1CNCCN1` [PIPERAZINE] are 102.1% and 77.78%.
In the same order, the values of `COC(=O)C1=C(C)NC(C)=C(C(=O)OCCN(C)Cc2ccccc2)C1c1cccc([N+](=O)[O-])c1.Cl` (configuration not stated) [NICARDIPINE HYDROCHLORIDE] are 67.41% and 56.95%.
As for `Cc1cc(=O)c2c(O)cc(O)c(C)c2o1` [ISOEUGENITOL], the results for the residual activity in data set [1] and in data set [2] were 101% and 129.2%, respectively.
Regarding `CN1CCCC(n2nc(Cc3ccc(Cl)cc3)c3ccccc3c2=O)CC1.Cl` (configuration not stated) [AZELASTINE HYDROCHLORIDE], the residual activity was 134.9% in data set [1] and 43.45% in data set [2].
For `C[C@]12CC[C@@H]3c4ccc(O)cc4CC[C@H]3[C@@H]1C[C@@H](O)[C@@H]2O` [ESTRIOL] the same measures were 102.7% and 110.2%.
In the same order, the values of `CC(=O)O[C@@H]1C[C@H]2C(C)(C)CCC(=O)[C@]2(C)[C@H]2CC[C@@]3(C)[C@H](c4ccoc4)OC(=O)[C@H]4O[C@]43[C@@]21C` are 105.3% and 67%.
`O=C(O)CCCC[C@@H]1SC[C@@H]2NC(=O)N[C@@H]21` [BIOTIN]: the figures for the residual activity in data set [1] and in data set [2] were 96.7% and 93.06%, respectively.
In the same order, the values of `Cc1cc(=O)c2c(O)c3c(cc2o1)OC(C)(C)CC3` [DIHYDROSPATHELIACHROMENE] are 116.8% and 127.1%.
For `Oc1ccc(O)cc1` [HYDROQUINONE] the same measures were 93.82% and 112.9%.
Consider `O=c1cc(CO)occ1O` [KOJIC ACID], for which the results for the residual activity in data set [1] and in data set [2] were 80.38% and 79.88%, respectively.
For `COc1cc(O)c2c(c1)C(=O)c1cc(C)cc(O)c1C2=O` [PHYSCION] the same measures were 112.8% and 111.9%.
For `C[N+]1(C)[C@@H]2CC[C@H]1C[C@@H](OC(=O)C(O)c1ccccc1)C2.[Br-]` (some centres not stated) [HOMATROPINE METHYLBROMIDE] the same measures were 73.94% and 77.55%.
